Data reported in patent US9910034B2, “Methods and compositions for phototransfer” (AmberGen, Inc., priority 2007, dated 2018).

Molecular target: T1, protein kinase Cα (PKCα) (Homo sapiens, UniProt P17252)
T1 construct: isolate and photo-release endogenous PKCα from the undiluted detergent fractionated HeLa cell extracts; endogenous in cells; host or cells: HeLa cells (ATCC)
Test: PMA mediated PKCα sub-cellular translocation measured by kinase activity after isolation with photocleavable antibodies
Assay type: cell-based
Conditions: cultured HeLa cells stimulated with 200 nM PMA for 5 min; detergent fractionated; based on kinase activity of photocleavable antibody isolated protein; n=4
Procedure: FIG. 20. Phorbol ester (PMA) mediated protein kinase Cα (PKCα) sub-cellular translocation as measured by functional activity following isolation with photocleavable antibodies. Cultured HeLa cells were stimulated with 200 nM PMA for 5 min and detergent fractionated into the cytosol and membrane compartments prior to isolation and purification with the photocleavable antibodies.
Cultured HeLa cells (ATCC; Manassas, Va.) were stimulated for 5 min with 200 nM Phorbol-12-Myristate-13-Acetate (PMA; EMD Biosciences, Inc., San Diego, Calif.) and subsequently detergent fractionated into sub-cellular compartments according to reported procedures [Ramsby et al. (1994) Electrophoresis 15, 265-277; Ramsby & Makowski. (1999) Methods Mol Biol 112, 53-66; Chiang et al. (2000) J Biochem Biophys Methods 46, 53-68]. PMA is a potent activator of PKCα and is well known to cause translocation of the kinase from the cytosolic to the membrane sub-cellular compartments [Ross & Joyner. (1997) Endothelium 5, 321-332; Bazan & Rapoport. (1996) J Pharmacol Toxicol Methods 36, 87-95; Yazlovitskaya Melnykovych. (1995) Cancer Lett 88, 179-183]. […]

SMILES: CCCCCCCCCCCCCC(=O)O[C@@H]1[C@@H](C)[C@@]2(O)[C@@H](C=C(CO)C[C@]3(O)C(=O)C(C)=C[C@@H]23)[C@@H]2C(C)(C)[C@]12OC(C)=O [PMA, Phorbol-12-Myristate-13-Acetate]
- relative sub-cellular distribution of PKCα, cytosol: 16±4%
- relative sub-cellular distribution of PKCα, membrane: 84±3%
